Columns and labels:
Gamma-secretase = test: In vitro inhibition of gamma secretase.; format: protein-complex assay, Homo sapiens
[1] = Cmax value at 1 mg/kg po in rat; format: ADME, organism-based; set-up: dose 1 mg/kg, route oral; conditions: in vivo
[2] = Area under curve at 4 hr in rat; format: ADME, organism-based; set-up: time < 4 hr; conditions: in vivo
[3] = Bioavailability in rat; format: ADME, organism-based; conditions: in vivo
[4] = Half life period was determined; format: ADME; conditions: rat
[5] = Cmax value at 5 mg/kg po was determined in rat; format: ADME, organism-based; set-up: dose 5 mg/kg, route oral; conditions: in vivo
[6] = Cmax value at 5 mg/kg po in rat; format: ADME, organism-based; set-up: dose 5 mg/kg, route oral; conditions: in vivo

Structure (SMILES)	IC50 (Gamma-secretase) [nM]	further results
CNC(=O)CN1C(=O)[C@@H](NC(=O)[C@@H](C)Cc2ccc(F)c(F)c2)N=C(c2ccc3c(c2)OCO3)c2ccccc21	1.8	–
C[C@@H](Cc1ccc(F)c(F)c1)C(=O)NC1N=C(c2ccc(C(N)=O)cc2)c2ccccc2N(C)C1=O (stereo partly specified)	0.49	–
C[C@@H](Cc1ccc(F)c(F)c1)C(=O)N[C@H]1N=C(c2ccc3c(c2)CCN(C)C3=O)c2ccccc2N(C)C1=O	1880	–
C[C@@H](Cc1ccc(F)c(F)c1)C(=O)N[C@H]1N=C(c2ccc3c(c2)OC(F)(F)O3)c2ccccc2N(C)C1=O	28	–
C[C@@H](Cc1ccc(F)c(F)c1)C(=O)N[C@H]1N=C(c2ccc3c(c2)CCNC3=O)c2ccccc2N(C)C1=O	0.3	Cmax [1]: 2 nM; AUC at 4 h [2]: < 0.004 µM·h
CC(=O)CCN1C(=O)[C@@H](NC(=O)[C@@H](C)Cc2ccc(F)c(F)c2)N=C(c2ccc3c(c2)OCO3)c2ccccc21	3.7	–
C[C@@H](Cc1ccc(F)c(F)c1)C(=O)N[C@H]1N=C(c2ccc3c(=O)ccoc3c2)c2ccccc2N(C)C1=O	1.2	–
C[C@@H](Cc1ccc(F)c(F)c1)C(=O)N[C@H]1N=C(c2ccc3c(c2)OCCO3)c2ccccc2N(C)C1=O	4.7	–
C[C@@H](Cc1ccc(F)c(F)c1)C(=O)N[C@H]1N=C(c2ccc3c(c2)CCC(=O)N3)c2ccccc2N(C)C1=O	101	–
C[C@@H](Cc1ccc(F)c(F)c1)C(=O)N[C@H]1N=C(c2ccc3c(c2)OCO3)c2ccccc2N(CC(N)=O)C1=O	13.2	bioavailability [3]: 22%; half-life [4]: 1.4 h; Cmax [5]: 900 nM; AUC at 4 h [2]: 2.9 µM·h
COC(=O)CN1C(=O)[C@@H](NC(=O)[C@@H](C)Cc2ccc(F)c(F)c2)N=C(c2ccc3c(c2)OCO3)c2ccccc21	12.7	–
C[C@@H](Cc1ccc(F)c(F)c1)C(=O)N[C@H]1N=C(c2ccc3c(c2)OCO3)c2ccccc2NC1=O	1.8	–
C[C@@H](Cc1ccc(F)c(F)c1)C(=O)N[C@H]1N=C(c2ccc3c(c2)OCO3)c2ccccc2N(C)C1=O	13.2	Cmax [6]: 40 nM; AUC at 4 h [2]: 0.09 µM·h
C[C@@H](Cc1ccc(F)c(F)c1)C(=O)N[C@H]1N=C(c2ccc3c(c2)OCO3)c2ccccc2N(CC(=O)N(C)C)C1=O	5.5	–
C[C@@H](Cc1ccc(F)c(F)c1)C(=O)N[C@H]1N=C(c2ccc3c(c2)CCC3=O)c2ccccc2N(C)C1=O	3.6	–
C[C@@H](Cc1ccc(F)c(F)c1)C(=O)N[C@H]1N=C(c2ccc3c(c2)CCCC3=O)c2ccccc2N(C)C1=O	2.2	–
C[C@@H](Cc1ccc(F)c(F)c1)C(=O)N[C@H]1N=C(c2ccc3c(c2)OCO3)c2ccccc2N(CCO)C1=O	0.9	–
C[C@@H](Cc1ccc(F)c(F)c1)C(=O)N[C@H]1N=C(c2ccc3c(=O)[nH]ccc3c2)c2ccccc2N(C)C1=O	0.2	–

From ChEMBL document CHEMBL1145882, “High affinity, bioavailable 3-amino-1,4-benzodiazepine-based gamma-secretase inhibitors” (Bioorg Med Chem Lett, 2003)
